# Assay results taken from patent publication US20100029657A1, “Bridged, Bicyclic Heterocyclic or Spiro Bicyclic Heterocyclic Derivatives of Pyrazolo[1, 5-A]Pyrimidines, Methods for Preparation and Uses Thereof” (Wyeth, priority 2008, published 2010).
# Target: T1, Flag/GST-tagged recombinant human B-Raf (Homo sapiens, UniProt P15056)
# T1 construct: Flag; GST; made in house; host or cells: Sf9 insect cells (B-Raf); E. coli (MEK1-GST)
# Assay: B-Raf kinase assay (phosphorylation of GST-MEK1, phospho-MEK1 antibody/Europium detection)
# Type: biochemical
# Details: B-Raf IC50 Data for compounds of Formula A; read-out: Mean IC50
# Experimental: B-Raf1 Kinase Assay Procedure: B-Raf-1 is used to phosphorylate GST-MEK1.
# • 1. Assay Dilution Buffer (ADB): 20 mM MOPS, pH 7.2, 25 mM β-glycerol phosphate, 5 mM EGTA, 1 mM sodium orthovanadate, 1 mM dithiothreitol, 0.01% Triton X-100. • 2. Magnesium/ATP Cocktail: ADB solution (minus Triton X-100) plus 200 μM cold ATP and 40 mM magnesium chloride. • 4. Active Kinase: Active B-Raf: Used at 0.2 nM per assay point. • 5. […] TBST—Tris (50 mM, pH 7.5), NaCl (150 mM), Tween-20 (0.05%) • 7. Anti-GST Ab (GE) • 8. Anti pMEK Ab (Upstate) • 9. Anti-rabbit Ab/Europium conjugate (Wallac).
# B-Raf Assay Procedure: • 1. Added 25 μL of ADB containing B-Raf and Mek per assay (i.e. per well of a 96 well plate) • 2. Added 25 μL of 0.2 mM ATP and 40 mM magnesium chloride in Magnesuium/ATP Cocktail. • 3. Incubated for 45 minutes at RT with occasional shaking. • 4. Transferred this mixture to an anti-GST Ab coated 96 well plate (Nunc Immunosorb plates coated o/n with a-GST. Plate freshly washed 3×with TBS-T before use. • 5. Incubated o/n at […] in cold room. • 6. Washed 3× with TBST, ed Anti-Phospho MEK1 (1:1000, dilution depended upon lot) • 7. Incubated for 60 minutes at RT in a shaking incubator • 8. Washed 3× with TBST, add Anti-rabbit Ab/Europium conjugate (Wallac) (1:500, dilution depended upon lot) • 9. Incubated for 60 minutes at RT on a platform shaker. • 10. Washed plate 3× with TBS-T • 11. Added 100 μL of Wallac Delfia Enhancement Solution and agitated for 10 minutes. • 12. Read plates in Wallac Victor model Plate Reader. • 13.
# The % inhibition was determined for each compound concentration.
# T1 sequence (P15056 whole entry): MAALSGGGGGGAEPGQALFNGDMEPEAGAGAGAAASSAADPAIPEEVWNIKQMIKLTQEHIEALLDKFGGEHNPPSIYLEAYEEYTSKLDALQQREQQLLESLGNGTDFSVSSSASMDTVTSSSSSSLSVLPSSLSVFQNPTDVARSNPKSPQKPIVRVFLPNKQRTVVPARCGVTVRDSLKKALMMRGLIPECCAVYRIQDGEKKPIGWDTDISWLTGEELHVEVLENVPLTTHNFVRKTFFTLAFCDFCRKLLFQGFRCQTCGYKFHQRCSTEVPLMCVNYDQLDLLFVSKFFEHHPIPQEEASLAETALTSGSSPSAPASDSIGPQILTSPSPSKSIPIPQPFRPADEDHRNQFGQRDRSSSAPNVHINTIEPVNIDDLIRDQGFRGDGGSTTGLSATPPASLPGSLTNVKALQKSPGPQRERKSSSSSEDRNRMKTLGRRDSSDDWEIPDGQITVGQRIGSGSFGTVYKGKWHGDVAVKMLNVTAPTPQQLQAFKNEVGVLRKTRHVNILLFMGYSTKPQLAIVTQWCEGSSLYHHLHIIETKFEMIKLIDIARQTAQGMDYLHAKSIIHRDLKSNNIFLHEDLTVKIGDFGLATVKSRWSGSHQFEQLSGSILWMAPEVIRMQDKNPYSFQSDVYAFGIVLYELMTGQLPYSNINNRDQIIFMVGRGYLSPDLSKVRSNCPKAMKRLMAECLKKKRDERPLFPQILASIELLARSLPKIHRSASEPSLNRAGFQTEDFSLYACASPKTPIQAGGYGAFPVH
row,Structure (SMILES),IC50
1,"Cc1cc(N2C[C@@H]3C[C@H]2CN3)ccc1-c1ccnc2c(-c3cccc4[nH]ncc34)c(-c3ccncc3)nn12 [Example 44, 7-(4-((1S,4S)-2,5-Diazabicyclo[2.2.1]heptan-2-yl)-2-methylphenyl)-3-(1H-indazol-4-yl)-2-(pyridin-4-yl)pyrazolo[1,5-a]pyrimidine]",0.6 nM
2,"Cc1cc(N2C[C@@H]3C[C@H]2CN3C)ccc1-c1ccnc2c(-c3cccc4[nH]ncc34)c(-c3ccncc3)nn12 [Example 45, 3-(1H-Indazol-4-yl)-7-(2-methyl-4-((1S,4S)-5-methyl-2,5-diazabicyclo[2.2.1]heptan-2-yl)phenyl)-2-(pyridin-4-yl)pyrazolo[1,5-a]pyrimidine]",< 0.3 nM
3,"Fc1ccc(-c2ccnc3c(-c4cccc5[nH]ncc45)c(-c4ccncc4)nn23)c(N2C[C@@H]3C[C@H]2CN3)c1 [Example 46, 7-(2-((1S,4S)-2,5-Diazabicyclo[2.2.1]heptan-2-yl)-4-fluorophenyl)-3-(1H-indazol-4-yl)-2-(pyridin-4-yl)pyrazolo[1,5-a]pyrimidine]",3.2 nM
4,"CN1C[C@@H]2C[C@H]1CN2c1cc(F)ccc1-c1ccnc2c(-c3cccc4[nH]ncc34)c(-c3ccncc3)nn12 [Example 47, 7-(4-Fluoro-2-((1S,4S)-5-methyl-2,5-diazabicyclo[2.2.1]heptan-2-yl)phenyl)-3-(1H-indazol-4-yl)-2-(pyridin-4-yl)pyrazolo[1,5-a]pyrimidine]",0.8 nM
5,"COc1cc(-c2c(-c3ccncc3)nn3c(-c4ccc(F)cc4N4C[C@@H]5C[C@H]4CN5C(=O)OC(C)(C)C)ccnc23)ccc1Cl [Example 48, (1S,4S)-tert-Butyl 5-(2-(3-(4-chloro-3-methoxyphenyl)-2-(pyridin-4-yl)pyrazolo[1,5-a]pyrimidin-7-yl)-5-fluorophenyl)-2,5-diazabicyclo[2.2.1]-heptane-2-carboxylate]",> 1000 nM
6,"COc1cc(-c2c(-c3ccncc3)nn3c(-c4ccc(F)cc4N4C[C@@H]5C[C@H]4CN5)ccnc23)ccc1Cl [Example 49, 7-(2-((1S,4S)-2,5-Diazabicyclo[2.2.1]heptan-2-yl)-4-fluorophenyl)-3-(4-chloro-3-methoxyphenyl)-2-(pyridin-4-yl)pyrazolo[1,5-a]pyrimidine]",255 nM
7,"COc1cc(-c2c(-c3ccncc3)nn3c(-c4ccc(F)cc4N4C[C@@H]5C[C@H]4CN5C)ccnc23)ccc1Cl [Example 50, 3-(4-Chloro-3-methoxyphenyl)-7-(4-fluoro-2-((1S,4S)-5-methyl-2,5-diazabicyclo[2.2.1]heptan-2-yl)phenyl)-2-(pyridin-4-yl)pyrazolo[1,5-a]pyrimidine]",> 1000 nM
8,"c1cc(-c2c(-c3ccncc3)nn3c(-c4ccc(N5C[C@@H]6C[C@H]5CN6)cc4)ccnc23)c2cn[nH]c2c1 [Example 51, 7-(4-((1S,4S)-2,5-Diazabicyclo[2.2.1]heptan-2-yl)phenyl)-3-(1H-indazol-4-yl)-(pyridin-4-yl)pyrazolo[1,5-a]pyrimidine]",0.8 nM
9,"Fc1cc(N2C[C@@H]3C[C@H]2CN3)ccc1-c1ccnc2c(-c3cccc4[nH]ncc34)c(-c3ccncc3)nn12 [Example 52, 7-(4-((1S,4S)-2,5-Diazabicyclo[2.2.1]heptan-2-yl)-2-fluorophenyl)-3-(1H-indazol-4-yl)-2-(pyridin-4-yl)pyrazolo[1,5-a]pyrimidine]",< 0.3 nM
10,"CN1C[C@@H]2C[C@H]1CN2c1ccc(-c2ccnc3c(-c4cccc5[nH]ncc45)c(-c4ccncc4)nn23)c(F)c1 [Example 53, 7-(2-Fluoro-4-((1S,4S)-5-methyl-2,5-diazabicyclo[2.2.1]heptan-2-yl)phenyl)-3-(1H-indazol-4-yl)-2-(pyridin-4-yl)pyrazolo[1,5-a]pyrimidine]",< 0.3 nM
11,"CN1C[C@@H]2C[C@H]1CN2c1ccc(-c2ccnc3c(-c4ccc(F)c(O)c4)c(-c4ccncc4)nn23)cc1 [Example 54, 2-fluoro-5-(7-(4-((1S,4S)-5-methyl-2,5-diazabicyclo[2.2.1]heptan-2-yl)phenyl)-2-(pyridin-4-yl)pyrazolo[1,5-a]pyrimidin-3-yl)phenol]",150 nM
12,"Cc1cc(N2C[C@@H]3C[C@H]2CN3C)ccc1-c1ccnc2c(-c3ccc(F)c(O)c3)c(-c3ccncc3)nn12 [Example 56, 2-Fluoro-5-(7-(2-methyl-4-((1S,4S)-5-methyl-2,5-diazabicyclo[2.2.1]heptan-2-yl)phenyl)-2-(pyridin-4-yl)pyrazolo[1,5-a]pyrimidin-3-yl)phenol]",< 0.3 nM
13,"Cc1cc(N2C[C@@H]3C[C@H]2CN3C)ccc1-c1ccnc2c(-c3cccc(O)c3)c(-c3ccncc3)nn12 [Example 58, 3-(7-(2-Methyl-4-((1S,4S)-5-methyl-2,5-diazabicyclo[2.2.1]heptan-2-yl)phenyl)-2-(pyridin-4-yl)pyrazolo[1,5-a]pyrimidin-3-yl)phenol]",< 0.3 nM
14,"Oc1cccc(-c2c(-c3ccncc3)nn3c(-c4ccc(N5C[C@@H]6C[C@H]5CN6)cc4Cl)ccnc23)c1 [Example 59, 3-(7-(4-((1S,4S)-2,5-Diazabicyclo[2.2.1]heptan-2-yl)-2-chlorophenyl)-2-(pyridin-4-yl)pyrazolo[1,5-a]pyrimidin-3-yl)phenol]",< 0.3 nM
15,"CN1C[C@@H]2C[C@H]1CN2c1ccc(-c2ccnc3c(-c4cccc(O)c4)c(-c4ccncc4)nn23)c(Cl)c1 [Example 60, 3-(7-(2-Chloro-4-((1S,4S)-5-methyl-2,5-diazabicyclo[2.2.1]heptan-2-yl)phenyl)-2-(pyridin-4-yl)pyrazolo[1,5-a]pyrimidin-3-yl)phenol]",< 0.3 nM
16,"Clc1cc(N2C[C@@H]3C[C@H]2CN3)ccc1-c1ccnc2c(-c3cccc4[nH]ncc34)c(-c3ccncc3)nn12 [Example 61, 7-(4-((1S,4S)-2,5-Diazabicyclo[2.2.1]heptan-2-yl)-2-chlorophenyl)-3-(1H-indazol-4-yl)-2-(pyridin-4-yl)pyrazolo[1,5-a]pyrimidine]",< 0.3 nM
17,"CN1C[C@@H]2C[C@H]1CN2c1ccc(-c2ccnc3c(-c4cccc5[nH]ncc45)c(-c4ccncc4)nn23)c(Cl)c1 [Example 62, 7-(2-Chloro-4-((1S,4S)-5-methyl-2,5-diazabicyclo[2.2.1]heptan-2-yl)phenyl)-3-(1H-indazol-4-yl)-2-(pyridin-4-yl)pyrazolo[1,5-a]pyrimidine]",< 0.3 nM
18,"CCN1C2CCC1CC(c1ccnc3c(-c4ccc(F)c(O)c4)c(-c4ccncc4)nn13)C2 (stereo not shown) [Example 64, 5-(7-(8-Ethyl-8-azabicyclo[3.2.1]octan-3-yl)-2-(pyridin-4-yl)pyrazolo[1,5-a]pyrimidin-3-yl)-2-fluorophenol]",3 nM
19,"CCOC(=O)N1C2CCC1CC(c1ccnc3c(-c4cccc(F)c4F)c(-c4ccncc4)nn13)C2 (stereo not shown) [Example 65, Ethyl 3-(3-(2,3-difluorophenyl)-2-(pyridin-4-yl)pyrazolo[1,5-a]pyrimidin-7-yl)-8-azabicyclo[3.2.1]octane-8-carboxylate]",302 nM
20,"CCOC(=O)N1C2CCC1CC(c1ccnc3c(-c4cccc(NS(C)(=O)=O)c4)c(-c4ccncc4)nn13)C2 (stereo not shown) [Example 66, Ethyl 3-(3-(3-(methylsulfonamido)phenyl)-2-(pyridin-4-yl)pyrazolo[1,5-a]pyrimidin-7-yl)-8-azabicyclo[3.2.1]octane-8-carboxylate]",329 nM
21,"CCN1C2CCC1CC(c1ccnc3c(-c4ccc(NC(=O)OC)cc4)c(-c4ccncc4)nn13)C2 (stereo not shown) [Example 67, Methyl 4-(7-(8-ethyl-8-azabicyclo[3.2.1]octan-3-yl)-2-(pyridin-4-yl)pyrazolo[1,5-a]pyrimidin-3-yl)phenylcarbamate]",> 1000 nM
22,"CCN1C2CCC1CC(c1ccnc3c(-c4ccc(C#N)c(O)c4)c(-c4ccncc4)nn13)C2 (stereo not shown) [Example 68, 4-(7-(8-Ethyl-8-azabicyclo[3.2.1]octan-3-yl)-2-(pyridin-4-yl)pyrazolo[1,5-a]pyrimidin-3-yl)-2-hydroxybenzonitrile]",58 nM
23,"CCN1C2CCC1CC(c1ccnc3c(-c4ccc(NC=O)c(O)c4)c(-c4ccncc4)nn13)C2 (stereo not shown) [Example 72a, N-(4-(7-(8-Ethyl-8-azabicyclo[3.2.1]octan-3-yl)-2-(pyridin-4-yl)pyrazolo[1,5-a]pyrimidin-3-yl)-2-hydroxyphenyl)formamide]",566 nM
24,"CCN1C2CCC1CC(c1ccnc3c(-c4ccc(NC=O)c(OC)c4)c(-c4ccncc4)nn13)C2 (stereo not shown) [Example 72b, N-(4-(7-(8-ethyl-8-azabicyclo[3.2.1]octan-3-yl)-2-(pyridin-4-yl)pyrazolo[1,5-a]pyrimidin-3-yl)-2-methoxyphenyl)formamide]",417 nM
25,"CCOC(=O)N1C2CCC1CC(c1ccnc3c(-c4cccc5[nH]ncc45)c(-c4ccncc4)nn13)C2 (stereo not shown) [Example 73, Ethyl 3-[3-(1H-indazol-4-yl)-2-pyridin-4-ylpyrazolo[1,5-a]pyrimidin-7-yl]-8-azabicyclo[3.2.1]octane-8-carboxylate]",2 nM
